Here are results for 13 compounds from patent publication US20250230155A1 (Vanderbilt University, priority 2021, published 2025).

Molecules are shown by their SMILES.

Broadly, the Emax is the greatest response seen or fitted, relative to the assay's reference. By EC50 is commonly meant the concentration giving half of the maximal effect.

This assay addresses T1, human mAChR M4 (Homo sapiens, UniProt P08173).
T1 construct: expressed in transfected cells
T1 sequence (P08173 1-479): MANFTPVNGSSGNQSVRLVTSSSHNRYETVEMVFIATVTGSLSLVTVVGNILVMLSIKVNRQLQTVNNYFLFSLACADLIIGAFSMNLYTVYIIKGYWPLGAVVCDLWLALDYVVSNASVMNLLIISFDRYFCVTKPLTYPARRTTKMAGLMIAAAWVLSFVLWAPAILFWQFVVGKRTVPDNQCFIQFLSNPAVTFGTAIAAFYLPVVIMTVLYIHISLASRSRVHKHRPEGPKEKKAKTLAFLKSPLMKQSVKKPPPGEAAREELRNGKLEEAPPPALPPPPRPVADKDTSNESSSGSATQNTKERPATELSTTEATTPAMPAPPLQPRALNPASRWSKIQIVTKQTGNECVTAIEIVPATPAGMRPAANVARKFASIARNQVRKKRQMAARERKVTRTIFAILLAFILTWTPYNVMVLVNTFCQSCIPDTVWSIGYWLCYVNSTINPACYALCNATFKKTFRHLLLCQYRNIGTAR
The assay can be described thus: mAChR M4 cell-based functional assay (calcium mobilization, CHO-K1 hM4-Gqi5 cells). The settings on record: for Emax at 30 µM: CHO-K1, % ACh maximum at 30 μM, human M4; for EC50: positive allosteric modulator activity, increase in the EC20 acetylcholine response, CHO-K1 hM4-Gqi5 cells, read-out: Human M4 EC50. As to the method: Human and rat M4 cDNAs, along with the chimeric G protein Gqi5, were transfected into Chinese hamster ovary (CHO-K1) cells purchased from the American Type Culture Collection using Lipofectamine2000. hM4-Gqi5 cells were grown in Ham's F-12 medium containing 10% heat-inactivated fetal bovine serum (FBS), 20 mM HEPES, 50 μg/mL G418 sulfate, and 500 μg/mL Hygromycin B. rM4-Ggi5 cells were grown in DiVEM containing 10% heat-inactivated FBS, 20 mM THEPES, 400 μμg/mL G418 sulfate, and 500 μμg/mL Hygromycin B.
For high throughput measurement of agonist-evoked increases in intracellular calcium, CHO-K1 cells stably expressing muscarinic receptors were plated in growth medium lacking G418 and hygromycin at 15,000 cells/20 μL/well in Greiner 384-well black-walled, tissue culture (TC)-treated, clear-bottom plates (VWR). Cells were incubated overnight at 37° C. and 5% CO2. The next day, cells were washed using an ELX 405 (BioTek) with assay buffer; the final volume was then aspirated to 20 μL. Next, 20 μL of a […] of Fluo-4/acetoxymethyl ester (Invitrogen, Carlsbad, CA), prepared as a 2.3 mM stock in DMSO and mixed in a 1:1 ratio with 10% (w/v) Pluronic F-127 and diluted in assay buffer, was added to the wells and the cell plates were incubated for 50 min at 37° C. and 5% C02. Dye was removed by washing with the ELX 405 and the final volume was aspirated to 20 μL. Compound master plates were formatted in an 11 point concentration-response curve (CRC) format (1:3 dilutions) in 100% DMSO with a starting concentration of 10 mM using a BRAVO liquid handler (Agilent). Test compound CRCs were then transferred to daughter plates (240 nL) using the Echo acoustic plate reformatter (Labcyte, Sunnyvale, CA) and then diluted into assay buffer (40 μL) to a 2× stock using a Thermo Fisher Combi (Thermo Fisher Scientific, Waltham, MA).
Calcium flux was measured using the Functional Drug Screening System (FDSS) 6000 or 7000 (Hamamatsu Corporation, Tokyo, Japan) as an increase in the fluorescent static ratio. Compounds were applied to cells (20 μL, 2×) using the automated system of the FDSS at 2-4 seconds into the protocol and the data were collected at 1 Hz. At 144 seconds, 10 μL of an EC20 concentration of the muscarinic receptor agonist acetylcholine was added (5×), followed by the addition of 12 μL of an EC80 concentration of acetylcholine at the 230 second time point (5×). Agonist activity was analyzed as a concentration-dependent increase in calcium mobilization upon compound addition. Positive allosteric modulator activity was analyzed as a concentration-dependent increase in the EC20 acetylcholine response. Antagonist activity was analyzed as a concentration-dependent decrease in the EC80 acetylcholine response. Concentration-response curves were generated using a four-parameter logistical equation in XLFit curve fitting software (IDBS, Bridgewater, NJ) for Excel (Microsoft, Redmond, WA) or Prism (GraphPad Software, Inc., San Diego, CA).
Compounds were synthesized as described above. Activity (EC50 and Emax) was determined in the mAChR M4 cell-based functional assay as described above and the data are shown in Table 2. The compound number corresponds to the compound numbers used in Table 1.

For `Cc1cc(C(=O)NC2CCCCC2)cnc1N1CCc2ncccc2C1` [compound 66, N-cyclohexyl-6-(7,8-dihydro-5H-1,6-naphthyridin-6-yl)-5-methyl-pyridine-3-carboxamide], the Emax at 30 µM is 47% and the EC50 was at least 10000 nM.
`Cc1cc2n(n1)CCCN2c1cnc2c(c1)CN(c1ncc(C#N)cc1C)CC2` [Example 385, 5-methyl-6-(3-(2-methyl-6,7-dihydropyrazolo[1,5-a]pyrimidin-4(5H)-yl)-7,8-dihydro-1,6-naphthyridin-6(5H)-yl)nicotinonitrile]: the Emax at 30 µM amounted to 103% and the EC50 worked out at 40 nM.
For `Cc1nc(C)c(C)c(N2CCc3ncc(Oc4cc(F)ccc4F)cc3C2)n1` [compound 263, 3-(2,5-difluorophenoxy)-6-(2,5,6-trimethylpyrimidin-4-yl)-5,6,7,8-tetrahydro-1,6-naphthyridine], the Emax at 30 µM was 90% and the EC50 came to 145 nM.
As to `Cc1cc(C(=O)NCc2ccncc2)cnc1N1CCc2ncc(Nc3ccnn3C)cc2C1` [Example 473, 5-methyl-6-(3-((1-methyl-1H-pyrazol-5-yl)amino)-7,8-dihydro-1,6-naphthyridin-6(5H)-yl)-N-(pyridin-4-ylmethyl)nicotinamide], the maximal effect (Emax) at 30 µM was determined as 87% and the EC50 worked out at 324 nM.
On the same counts, the results for `Cc1nc(Cl)c(C)c(N2CCc3ncc(Oc4ccc(F)cc4)cc3C2)n1` [compound 202, 6-(6-chloro-2,5-dimethyl-pyrimidin-4-yl)-3-(4-fluorophenoxy)-7,8-dihydro-5H-1,6-naphthyridine] are 78% and 921 nM.
On the same counts, the results for `Cc1cnc2c(c1)CN(c1nnc(C(=O)NCc3csc4ccccc34)c(C)c1C)CC2` [Example 470, N-(benzo[b]thiophen-3-ylmethyl)-4,5-dimethyl-6-(3-methyl-7,8-dihydro-1,6-naphthyridin-6(5H)-yl)pyridazine-3-carboxamide] are 102% and 278 nM.
Regarding `Cc1nc(Cl)c(C)c(N2CCc3ncc(Nc4cc(F)ccc4F)cc3C2)n1` [compound 88, 6-(6-chloro-2,5-dimethyl-pyrimidin-4-yl)-N-(2,5-difluorophenyl)-7,8-dihydro-5H-1,6-naphthyridin-3-amine], the Emax at 30 µM was 86% and the EC50 was found to be 731 nM.
Take `Cc1c(C#N)nnc(N2CCc3ncccc3C2)c1C` [compound 118, 6-(7,8-dihydro-5H-1,6-naphthyridin-6-yl)-4,5-dimethyl-pyridazine-3-carbonitrile]: the EC50 was determined as 2820 nM. Further, the Emax (CHO-K1) was 92%.
As for `Cc1cc(C#N)nnc1N1CCc2ncc(Nc3ccncc3F)cc2C1` [Example 598, 6-(3-((3-fluoropyridin-4-yl)amino)-7,8-dihydro-1,6-naphthyridin-6(5H)-yl)-5-methylpyridazine-3-carbonitrile], the Emax at 30 µM was found to be 98% and the EC50 came out at 25 nM.
The corresponding values for `Cc1nc(C(=O)N2CCOCC2)c(C)c(N2CCc3ncc(C(F)(F)F)cc3C2)n1` [compound 221, (2,5-dimethyl-6-(3-(trifluoromethyl)-7,8-dihydro-1,6-naphthyridin-6(5H)-yl)pyrimidin-4-yl)(morpholino)methanone] are 25% and at least 10000 nM.
For the compound `Cc1cnccc1Nc1cnc2c(c1)CN(c1ncc(C#N)cc1C)CC2` [Example 620, 5-methyl-6-(3-((3-methylpyridin-4-yl)amino)-7,8-dihydro-1,6-naphthyridin-6(5H)-yl)nicotinonitrile], the Emax at 30 µM is 96% and the EC50 came out at 72 nM.
Take `COc1ccc(CNc2cnc3c(c2)CN(c2ncc(C#N)cc2C)CC3)cc1F` [Example 5]: the Emax at 30 µM worked out at 63% and the EC50 turned out to be 2400 nM.
The corresponding values for `Cc1c(C#N)nnc(N2CCc3ncc(-c4ccns4)cc3C2)c1C` [compound 292, 6-(3-(isothiazol-5-yl)-7,8-dihydro-1,6-naphthyridin-6(5H)-yl)-4,5-dimethylpyridazine-3-carbonitrile] are 86% and 163 nM.
